Laboratory results as given in patent publication US20200171065A1, “METHOD FOR TREATING LIVER DISEASE WITH KINSENOSIDE” (HUAZHONG UNIVERSITY OF SCIENCE AND TECHNOLOGY, priority 2017, published 2020).
“Also recorded” adds a separate entry of the source. Where two headings read alike, the source gives them in different places.

Tests used:
[1] = tested on: hepatic stellate cells (HSC-T6) activated by TGF-β1; assay: Hepatic stellate cells (HSC-T6) activated by TGF-β1; assay type: cell-based; settings: different concentrations of KD
Excerpt: HSCs are important cells involved in liver fibrosis. The activation of HSCs is a key element of the development of liver fibrosis, and its apoptosis can reverse liver fibrosis. Different concentrations of KD were used to […] the hepatic stellate cells (HSC-T6) activated by TGF-β1.

[2] = tested on: SD mice with ANIT induced intrahepatic cholestasis; assay: ANIT-induced intrahepatic cholestasis; assay type: in vivo
Procedure: 42 SPF SD mice were purchased and raised in the SPF experimental animal center of Tongji Medical College of Huazhong University of Science and Technology. They were provided with standard diet and drinking water. The room temperature was controlled at 23±2° C. After 3 days of adaptive feeding, they were given drugs by intragastric administration. 42 SD mice were randomly divided into 7 groups (normal control group, ANIT model group, KD low-dose group, KD medium dose group, KD high-dose group, UDCA positive control group and KD negative control group), 6 mice in each group were weighed and recorded daily. […] Thereafter, the drug was given again every 24 hours for 3 times, and the animals in each group were fasted (water was provided) after the third time. 72 hours later, the animals were killed and samples were collected.

[3] = tested on: FVB/N mice with serine/threonine kinase (AKT) overexpressed in the liver (NAFL-NASH-liver fibrosis); settings: for Diameter of hepatic portal vein / Diameter of inferior vena cava / Length of the spleen / Oblique diameter of right lobe of liver / Thickness of the left lobe of liver / Thickness of the spleen: type B ultrasound
Procedure: The serine/threonine kinase (AKT) and transposase plasmids were injected into the liver of the mice by a transposition system through hydrodynamics. The serine/threonine kinase was specifically overexpressed in the liver, and the mice except the control group were modeled. One week later, nonalcoholic fatty liver (NAFL) was formed; two weeks later, steatohepatitis (NASH) was formed; and four weeks later, a primary hepatic fibrosis model was established. In the formation of NAFL-NASH-liver fibrosis, the therapeutic effect of KD was observed.

[4] = tested on: C57BL/6J mice with alcoholic liver fibrosis; assay: Alcoholic liver fibrosis (Lieber-DeCarli liquid diet + CCl4); assay type: in vivo
Procedure: C57BL/6J mice aged 8 weeks were raised in the SPF experimental animal center of Tongji Medical College of Huazhong University of Science and Technology. They were provided with standard diet and drinking water. The room temperature was controlled at 23±2° C. After 7 days of adaptive feeding, they were given drugs by intragastric administration.
The mice were fed with a 5% alcoholic Lieber-DeCarli liquid diet and intraperitoneal injection of CCl4 (CCl4 was intraperitoneally injected twice a week for the last four weeks). The mice were developed alcoholic fatty liver disease. The mice were administered with alcohol and drugs. Spherically, drinking water were administered to the control group and the model group, and different doses were administered to the dose groups.

[5] = tested on: C57BL/6 mice with HFFD nonalcoholic fatty liver; assay: Nonalcoholic fatty liver induced by high-fat and high fructose diet (HFFD); assay type: in vivo
Procedure: 60 SPF male C57BL/6 mice aged 4 weeks were raised in the SPF experimental animal center of Tongji Medical College of Huazhong University of Science and Technology. They were provided with standard diet and drinking water. The room temperature was controlled at 23±2° C. After 7 days of adaptive feeding, the mice were randomly divided into a control group with normal diet and a high-fat and high fructose diet group (40% fat, 40% fructose, 20% protein, HFFD). […] The mice were fed according to the groups, and the control group and the model group were fed with the same dose of normal saline for 4 weeks. […] The development of nonalcoholic fatty liver disease is closely related to the lipid levels of the liver and serum.

[6] = Liver fibrosis stage, KD 30 mg/kg
[7] = high, medium and low dose groups
[8] = low, medium and high dose of KD

O=C1C[C@@H](O[C@@H]2O[C@H](CO)[C@@H](O)[C@H](O)[C@H]2O)CO1 [KD]
apoptosis of HSC-T6 [1]: promote its apoptosis | cell cycle of HSC-T6 [1]: could block the cell cycle of the HSC-T6 in the G0/G1 phase | proliferation of HSC-T6 [1]: inhibit its proliferation | plasma biochemical indexes ([2]; 100 mg/kg KD to normal mice): did not change | plasma color ([2]; KD 50, 100, 200 mg/kg or UDCA 80 mg/kg by gavage): turned light yellow similar to that of the normal control group | expression of Fxr and Cyp7a1 genes ([2]; cholestasis mice, high-dose KD): can significantly up regulate the expression of Fxr and Cyp7a1 genes | expression of Bsep, Mrp2 and Mrp3 genes ([2]; cholestasis mice, medium and high-dose KD): can significantly up regulate the expression of Bsep, Mrp2 and Mrp3 genes | hepatic sinusoid and inflammatory cell infiltration (HE staining) ([2]; different doses of KD, UDCA treatment group): the expansion of hepatic sinusoid was improved and the infiltration of inflammatory cells was reduced | plasma ALT, AST, AKP, TBIL and DBIL ([2]; low, medium and high doses of KD, 80 mg/kg UDCA): can significantly reduce ALT, AST, AKP, TBIL and DBIL | plasma TBA ([2]; medium and high doses of KD, 80 mg/kg UDCA): can significantly reduce TBA | ANIT-induced intrahepatic cholestasis liver injury (overall) ([2]; mouse, in vivo): can alleviate the liver injury induced by ANIT; also recorded: has a good therapeutic effect on ANIT-induced intrahepatic cholestasis liver injury | liver histopathological damage (H&E staining) ([3]; 30, 20 and 10 mg/kg KD): could reduce liver histopathological damage | Diameter of hepatic portal vein [3, 6]: 0.65 ± 0.07 mm | Diameter of inferior vena cava [3, 6]: 1.15 ± 0.07 mm | Length of the spleen [3, 6]: 5.40 ± 0.71 mm | Oblique diameter of right lobe of liver [3, 6]: 8.35 ± 0.78 mm | Thickness of the left lobe of liver [3, 6]: 3.65 ± 0.49 mm | Thickness of the spleen [3, 6]: 1.50 ± 0.14 mm | Diameter of hepatic portal vein ([3]; NAFL stage, KD 30 mg/kg): 0.75 ± 0.07 mm | Diameter of inferior vena cava ([3]; NAFL stage, KD 30 mg/kg): 1.50 ± 0.14 mm | Length of the spleen ([3]; NAFL stage, KD 30 mg/kg): 5.40 ± 0.99 mm | Oblique diameter of right lobe of liver ([3]; NAFL stage, KD 30 mg/kg): 7.25 ± 0.21 mm | Thickness of the left lobe of liver ([3]; NAFL stage, KD 30 mg/kg): 4.35 ± 1.20 mm | Thickness of the spleen ([3]; NAFL stage, KD 30 mg/kg): 1.65 ± 0.07 mm | IFN-γ ([3]; NASH, KD 10 mg/kg): 36.71 ± 0.32^ΔΔ pg/mL | IL-2 ([3]; NASH, KD 10 mg/kg): 101.31 ± 9.79^##Δ pg/mL | IL-10 ([3]; NASH, KD 10 mg/kg): 66.84 ± 2.73 pg/mL | IL-12 ([3]; NASH, KD 10 mg/kg): 127.64 ± 2.71 pg/mL | NO ([3]; NASH, KD 10 mg/kg): 56.22 ± 5.32^ΔΔ μmol/L | TNF-α ([3]; NASH, KD 10 mg/kg): 4.10 ± 0.04 pg/mL | IFN-γ ([3]; NASH, KD 20 mg/kg): 33.86 ± 0.65 pg/mL | IL-2 ([3]; NASH, KD 20 mg/kg): 133.29 ± 4.57 pg/mL | IL-10 ([3]; NASH, KD 20 mg/kg): 84.12 ± 0.23^##ΔΔ pg/mL | IL-12 ([3]; NASH, KD 20 mg/kg): 123.05 ± 0.71 pg/mL | NO ([3]; NASH, KD 20 mg/kg): 51.38 ± 1.08^#ΔΔ μmol/L | TNF-α ([3]; NASH, KD 20 mg/kg): 3.03 ± 0.26^##ΔΔ pg/mL | IFN-γ ([3]; NASH, KD 30 mg/kg): 32.43 ± 0.98 pg/mL | IL-2 ([3]; NASH, KD 30 mg/kg): 169.13 ± 13.10^##Δ pg/mL | IL-10 ([3]; NASH, KD 30 mg/kg): 91.20 ± 0.56^##ΔΔ pg/mL | IL-12 ([3]; NASH, KD 30 mg/kg): 106.38 ± 1.18^##Δ pg/mL | NO ([3]; NASH, KD 30 mg/kg): 48.15 ± 1.86^##ΔΔ μmol/L | TNF-α ([3]; NASH, KD 30 mg/kg): 2.35 ± 0.10^##ΔΔ pg/mL | serum ALT and AST ([3]; during development of liver fibrosis): decreased after KD treatment | expression of MMP-13 in the liver (qPCR) [3, 7]: promoted the expression of matrix metalloproteinase-13 (MMP-13) | expression of α-SMA, Col I and TIMP-1 in the liver (qPCR) [3, 7]: could effectively inhibit the expression | release of inflammatory response marker NO [3, 7]: inhibited the release of the inflammatory response marker NO | secretion of IL-10 (Th2-type cells) [3, 7]: promoted the secretion of the inflammatory cytokine IL-10 | secretion of inflammatory cytokines IFN-γ, TNF-α and IL-2 (Th1) [3, 7]: reduced the secretion of the inflammatory cytokines IFN-γ, TNF-α and IL-2 | width of the inferior vena cava, left lobe thickness, right lobe obliquity and spleen thickness (ultrasound) ([3]; high, middle and low dose groups): can significantly reduce the width of the inferior vena cava, left lobe thickness, right lobe obliquity and spleen thickness | IFN-γ ([3]; liver fibrosis, KD 10 mg/kg): 85.76 ± 8.25 pg/mL | IL-2 ([3]; liver fibrosis, KD 10 mg/kg): 101.73 ± 0.70^##ΔΔ pg/mL | IL-10 ([3]; liver fibrosis, KD 10 mg/kg): 128.28 ± 24.84 pg/mL | IL-12 ([3]; liver fibrosis, KD 10 mg/kg): 253.62 ± 7.20 pg/mL | NO ([3]; liver fibrosis, KD 10 mg/kg): 52.13 ± 1.40 µmol/L | TNF-α ([3]; liver fibrosis, KD 10 mg/kg): 13.46 ± 9.31^ΔΔ pg/mL | IFN-γ ([3]; liver fibrosis, KD 20 mg/kg): 57.19 ± 1.65^##ΔΔ pg/mL | IL-2 ([3]; liver fibrosis, KD 20 mg/kg): 104.72 ± 0.71^##ΔΔ pg/mL | IL-10 ([3]; liver fibrosis, KD 20 mg/kg): 206.66 ± 1.91^##ΔΔ pg/mL | IL-12 ([3]; liver fibrosis, KD 20 mg/kg): 174.77 ± 2.72 pg/mL | NO ([3]; liver fibrosis, KD 20 mg/kg): 54.11 ± 15.40 µmol/L | TNF-α ([3]; liver fibrosis, KD 20 mg/kg): 8.41 ± 0.52 pg/mL | IFN-γ ([3]; liver fibrosis, KD 30 mg/kg): 53.38 ± 1.65^##ΔΔ pg/mL | IL-2 ([3]; liver fibrosis, KD 30 mg/kg): 93.91 ± 2.05^##ΔΔ pg/mL | IL-10 ([3]; liver fibrosis, KD 30 mg/kg): 140.44 ± 7.64 pg/mL | IL-12 ([3]; liver fibrosis, KD 30 mg/kg): 242.08 ± 5.44 pg/mL | NO ([3]; liver fibrosis, KD 30 mg/kg): 59.06 ± 1.40 µmol/L | TNF-α ([3]; liver fibrosis, KD 30 mg/kg): 2.38 ± 0.57 pg/mL | fiber formation (Masson staining) ([3]; mouse, in vivo): had inhibitory effect on the fiber formation | oxidative stress injuries (MDA, SOD) ([3]; mouse, in vivo): could reverse these oxidative stress injuries | secretion of ALT, AST and inflammatory cytokines ([3]; mouse, in vivo): did not affect the secretion of ALT, AST and inflammatory cytokines | shear wave velocity of SWE (liver) ([3]; mouse, in vivo): could significantly reduce the shear wave velocity | fibrosis degree (Masson staining) ([4]; 40 and 20 mg/kg KD): can significantly reduce the degree of fibrosis in mice; also recorded: the fibrosis degree was reduced | inflammatory cells and Mallory bodies (H&E staining) ([4]; 40 and 20 mg/kg KD): the inflammatory cells in the KD group were reduced compared with the model group | SOD activity in the liver homogenate / oxidative stress injuries ([4]; ALF mice): increased the activity of superoxide dismutase (SOD) in the liver of AFL and ALF mice; also recorded: could reverse the oxidative stress injuries | serum ALT ([4]; ALF mice): decreased the serum alanine aminotransferase (ALT) of AFL and ALF mice; also recorded: decreased after KD treatment | secretion of TNF-α and IL-6 ([4]; high and medium dose groups): inhibited the secretion of TNF and IL6 in AFL and ALF; also recorded: reduced the secretion of the inflammatory cytokine TNF-α and IL-6 | therapeutic effect on alcoholic liver fibrosis (overall) ([4]; mouse, in vivo): has a good therapeutic effect on alcoholic fatty liver and alcoholic liver fibrosis | free fatty acid level in the serum ([5]; each dose of KD): could significantly inhibit the level of free fatty acids; also recorded: could significantly inhibit the free fatty acid level in the serum | triglyceride in the liver ([5]; each dose of KD): could significantly inhibit the level of triglyceride in the liver | expression level of total macrophage marker molecule F4/80 ([5]; high dose KD): inhibited the expression level of total macrophage marker molecule F4/80; also recorded: could inhibit the expression level of the total macrophage marker molecule F4/80 | liver lipid degeneration, size and number of lipid droplets (photos, H&E staining) ([5]; high, middle and low dose groups, 4 weeks): could significantly reduce liver lipid denaturation induced by high-fat and high-fructose diet and reduce the size and number of lipid droplets in liver; also recorded: could significantly reduce the lipid degeneration and inhibit the size and number of lipid droplets | secretion of anti-inflammatory cytokine IL-10 in serum [5, 8]: promoted the secretion of the anti-inflammatory cytokine IL-10; also recorded: increase the secretion of anti-inflammatory cytokine IL-10 | secretion of proinflammatory cytokines IL-6, MCP-1, IFN-γ, TNF-α and IL-2 in serum [5, 8]: significantly inhibited the secretion of pro-inflammatory cytokines IL6, MCP-1, IFN-γ, TNF-α and IL-2; also recorded: can significantly inhibit the secretion of proinflammatory cytokines IL-6, MCP-1, IFN-γ, TNF-α and IL-2 | total cholesterol in liver and serum ([5]; low, medium and high doses of KD): significantly inhibited; also recorded: significantly reduced | serum LDL level ([5]; low-dose KD): could significantly inhibit the level of serum LDL in mice | expression of COX-2 and M1-type macrophage molecules IL6 and IFN ([5]; medium and high dose KD): significantly inhibited the expression level of inflammatory molecule COX-2; also recorded: could significantly inhibit the expression level of inflammatory molecule COX-2 and the inflammatory M1-type macrophage molecules IL6 and IFN | expression of M2-type macrophage marker molecules CD206, ARG1 and IL1β ([5]; medium and high dose KD): promoted the expression of anti-inflammatory M2-type macrophage marker molecules CD206, ARG1 and IL1; also recorded: promote the expression of anti-inflammatory M2-type macrophage marker molecules CD206, ARG1 and IL1β | therapeutic effect on nonalcoholic fatty liver (overall, vs silymarin 50 mg/kg) ([5]; mouse, in vivo): the therapeutic effect was better than that of silymarin; also recorded: significantly better than that of silymarin; also recorded: has a good therapeutic effect on non-alcoholic fatty liver
